Measured values taken from patent publication US11351178B2, “Selective HDAC6 inhibitors” (ITALFARMACO S.P.A., priority 2017, dated 2022).

Experiments:
[1] = Stability to Phase I metabolism in rat S9 liver fraction; format: in vitro ADME; details: after 90 min, 37° C.
In short: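 Compounds were incubated with rat or human liver S9 fraction at 37 °C for up to 90 min. Reactions were quenched on ice with acidified acetonitrile and analysed by HPLC-UV or LC-MS/MS. Percent remaining versus time zero and intrinsic clearance were calculated.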

recombinant human HDAC6 = target: T1, recombinant human HDAC6 (Homo sapiens, UniProt Q9UBN7); experiment: Enzymatic screening on recombinant human HDAC6; format: biochemical; details: Table 2; read-out: HDAC6 IC50
T1 sequence (Q9UBN7 1-1215): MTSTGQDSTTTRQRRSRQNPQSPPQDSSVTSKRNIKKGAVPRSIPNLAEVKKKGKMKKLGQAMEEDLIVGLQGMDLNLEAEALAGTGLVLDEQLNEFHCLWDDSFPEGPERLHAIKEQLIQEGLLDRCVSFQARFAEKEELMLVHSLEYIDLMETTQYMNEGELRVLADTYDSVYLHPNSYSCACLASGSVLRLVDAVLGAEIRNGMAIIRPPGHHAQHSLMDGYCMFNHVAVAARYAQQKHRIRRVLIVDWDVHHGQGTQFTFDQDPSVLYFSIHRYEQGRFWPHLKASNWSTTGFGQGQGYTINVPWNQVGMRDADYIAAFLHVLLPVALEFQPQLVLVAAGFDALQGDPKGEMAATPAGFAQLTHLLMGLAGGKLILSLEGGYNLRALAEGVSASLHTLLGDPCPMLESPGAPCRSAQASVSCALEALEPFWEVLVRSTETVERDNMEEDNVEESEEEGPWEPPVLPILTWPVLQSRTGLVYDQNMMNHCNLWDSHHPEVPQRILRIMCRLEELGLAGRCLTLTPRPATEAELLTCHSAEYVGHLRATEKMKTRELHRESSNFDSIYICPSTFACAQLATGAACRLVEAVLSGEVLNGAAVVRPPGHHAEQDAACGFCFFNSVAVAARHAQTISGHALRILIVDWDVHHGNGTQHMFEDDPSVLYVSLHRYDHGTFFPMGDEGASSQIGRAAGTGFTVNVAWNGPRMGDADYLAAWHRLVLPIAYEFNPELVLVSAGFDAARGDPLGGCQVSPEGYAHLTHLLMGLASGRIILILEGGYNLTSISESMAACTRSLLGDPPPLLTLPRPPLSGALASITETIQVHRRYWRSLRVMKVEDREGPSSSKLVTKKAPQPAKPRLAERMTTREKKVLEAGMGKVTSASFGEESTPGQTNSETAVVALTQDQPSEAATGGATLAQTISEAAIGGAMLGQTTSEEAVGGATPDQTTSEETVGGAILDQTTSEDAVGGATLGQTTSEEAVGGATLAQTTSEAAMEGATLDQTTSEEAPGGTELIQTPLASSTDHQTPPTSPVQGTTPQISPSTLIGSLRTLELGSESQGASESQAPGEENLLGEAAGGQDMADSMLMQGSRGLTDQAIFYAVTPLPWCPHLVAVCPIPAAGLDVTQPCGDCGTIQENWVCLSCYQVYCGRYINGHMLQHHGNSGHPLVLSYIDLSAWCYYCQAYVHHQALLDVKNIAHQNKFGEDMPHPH
In short: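 Compound + recombinant human HDAC, 30 °C, incubation time isoform-specific. Substrate (FdL, FdL-Green or Tfal) added as 2× stock in 25 mM Tris-HCl pH 8/130 mM NaCl/0.05% Tween-20/10% glycerol; reaction at 30 °C.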

[2] = system: B 697 promyelocytic cell line; experiment: Cytotoxicity on 697 cell line (CellTiter 96); format: cell-based; details: 72 hours incubation, read-out: 697 TOXICITY
Protocol: (§1) Cytotoxic activity was evaluated on B 697 […] cell line for all synthesized compounds and on peripheral blood mononuclear cells (PBMCs) for compounds showing a good potency/selectivity profile.
(§2) Cells were seeded in plate (2×10^4 cells per well for 697, 5×10^5 cells per well for PBMCs). The test compounds (concentrations from 1.5 nM to 10000 nM for PBMCs and from 1 nM to 10000 nM for 697) were added after 24 hours and incubated 72 hours. The molecules cytotoxic activity was evaluated using CellTiter 96© Aqueous One Solution Cell Proliferation Assay (Promega), which measures the mitochondria function, following the manufacturer's instructions.

Stability in rat plasma = format: in vitro ADME; details: after 4 hours, 37° C.
In short: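 Compounds incubated at 37° C in rat or human plasma at 50 μM (UV/HPLC) or 1 or 2 μM (LC-MS/MS) for 0–4 h. Reaction stopped with acidified acetonitrile on ice; percent remaining versus initial amount and plasma half-life calculated.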

[3] = system: peripheral blood mononuclear cells (PBMCs); experiment: Cytotoxicity on PBMCs (CellTiter 96); format: cell-based; details: PBMC, 72 h; read-out: PBMC TOXICITY (72 h)
Protocol: as §1, §2

SMILES	residual percentage in rat S9 fraction [1]	IC50 (recombinant human HDAC6)	IC50 [2]	residual percentage in rat plasma (Stability in rat plasma)	IC50 [3]
Cn1c(Sc2c(F)cc(C(=O)NO)cc2F)nnc1C(C)(C)c1ccccc1 [comp. 4, 3,5-difluoro-N-hydroxy-4-((4-methyl-5-(2-phenylpropan-2-yl)-4H-1,2,4-triazol-3-yl)thio)benzamide]	34%	0.02 µM	> 10 µM	106%	
O=C(NO)c1cc(F)c(Cn2nnnc2-c2scc3c2OCCO3)c(F)c1 [comp. 5, 4-((5-(2,3-dihydrothieno[3,4-b][1,4]dioxin-5-yl)-1H-tetrazol-1-yl)methyl)-3,5-difluoro-N-hydroxybenzamide]	36%	0.017 µM	88.7 µM	97%	
O=C(NO)c1ccc(Cn2nnc(-c3ccco3)n2)cc1 [comp. 12, 4-((5-(furan-2-yl)-2H-tetrazol-2-yl)methyl)-N-hydroxybenzamide]	44%	0.004 µM	> 10 µM	87%	
COc1cccc(-c2nnc(Sc3ccc(C(=O)NO)cc3)n2C)c1 [comp. 78, 4-[[5-(3-methoxyphenyl)-4-methyl-1,2,4-triazol-3-yl]sulfanyl]benzenecarbohydroxamic acid]		0.02 µM	22.2 µM		6 µM
O=C(NO)c1cc(F)c(Cn2nnnc2-c2nccc3ccccc23)c(F)c1 [comp. 94, 3,5-difluoro-4-[[5-(1-isoquinolyl)tetrazol-1-yl]methyl]benzenecarbohydroxamic acid]	22%	0.007 µM	0.908 µM	75%	
Cn1c(Sc2c(F)cc(C(=O)NO)cc2F)nnc1-c1nccc2ccccc12 [comp. 121, 3,5-difluoro-4-[[5-(1-isoquinolyl)-4-methyl-1,2,4-triazol-3-yl]sulfanyl]benzenecarbohydroxamic acid]	25%	0.012 µM	5.91 µM	100%	
Cn1c(Sc2c(F)cc(C(=O)NO)cc2F)nnc1-c1ccc2ccccc2n1 [comp. 122, 3,5-difluoro-4-[[4-methyl-5-(2-quinolyl)-1,2,4-triazol-3-yl]sulfanyl]benzenecarbohydroxamic acid]	47%	0.012 µM	1.03 µM	94%	
O=C(NO)c1ccc(Cn2nnc(-c3ncccn3)n2)cc1 [comp. 123, 4-[(5-pyrimidin-2-yltetrazol-2-yl)methyl]benzenecarbohydroxamic acid]	99%	0.008 µM	1.97 µM	99%	
O=C(NO)c1cc(F)c(Cn2nnnc2-c2ccc(C(F)(F)F)cn2)c(F)c1 [comp. 129, 3,5-difluoro-4-[[5-[5-(trifluoromethyl)-2-pyridyl]tetrazol-1-yl]methyl]benzenecarbohydroxamic acid]	45%	0.013 µM	13.2 µM	93%	
O=C(NO)c1cc(F)c(Cn2nnc(Cc3ccccn3)n2)c(F)c1.O=C(O)C(F)(F)F [comp. 134, 3,5-difluoro-4-[[5-(2-pyridylmethyl)tetrazol-2-yl]methyl]benzenecarbohydroxamic acid;2,2,2-trifluoroacetic acid]	95%	0.01 µM	> 10 µM	76%	
O=C(NO)c1cc(F)c(Sc2nnc(CN3CCCC3)n2Cc2ccccc2)c(F)c1 [comp. 141, 4-[[4-benzyl-5-(pyrrolidin-1-yl-methyl)-1,2,4-triazol-3-yl]sulfanyl]-3,5-difluoro-benzenecarbohydroxamic acid]	36%	0.025 µM	> 10 µM	73%	
O=C(NO)c1cc(F)c(Sc2nnc(-c3ccncc3)n2Cc2ccco2)c(F)c1 [comp. 146, 3,5-difluoro-4-[[4-(2-furylmethyl)-5-(4-pyridyl)-1,2,4-triazol-3-yl]sulfanyl]benzenecarbohydroxamic acid]	59%	0.02 µM	> 10 µM		
O=C(NO)c1cc(F)c(Sc2nnc(-c3cccnc3)n2Cc2ccco2)c(F)c1 [comp. 147, 3,5-difluoro-4-[[4-(2-furylmethyl)-5-(3-pyridyl)-1,2,4-triazol-3-yl]sulfanyl]benzenecarbohydroxamic acid]	76%	0.016 µM	> 10 µM	89%	
Cn1c(Sc2c(F)cc(C(=O)NO)cc2F)nnc1-c1cnc2ccccn12 [comp. 149, 3,5-difluoro-4-[(5-imidazo[1,2-a]pyridin-3-yl-4-methyl-1,2,4-triazol-3-yl)sulfanyl]benzenecarbohydroxamic acid]	84%	0.011 µM	0.794 µM		
Cn1c(Sc2c(F)cc(C(=O)NO)cc2F)nnc1C1(c2ccccc2)CCN(Cc2ccccc2)CC1 [comp. 150, 4-[[5-(1-benzyl-4-phenyl-4-piperidyl)-4-methyl-1,2,4-triazol-3-yl]sulfanyl]-3,5-difluoro-benzenecarbohydroxamic acid]	35%	0.024 µM	1.26 µM	92%	
CN1CCN(S(=O)(=O)c2cccc(-c3nnc(Sc4c(F)cc(C(=O)NO)cc4F)n3C)c2)CC1 [comp. 151, 3,5-difluoro-4-[[4-methyl-5-[3-(4-methylpiperazin-1-yl)sulfonylphenyl]-1,2,4-triazol-3-yl]sulfanyl]benzenecarbohydroxamic acid]	62%	0.009 µM	0.287 µM	87%	
Cn1c(Sc2c(F)cc(C(=O)NO)cc2F)nnc1-c1cccc(S(=O)(=O)N2CCN(Cc3ccccc3)CC2)c1 [comp. 152, 4-[[5-[3-(4-benzylpiperazin-1-yl)sulfonylphenyl]-4-methyl-1,2,4-triazol-3-yl]sulfanyl]-3,5-difluoro-benzenecarbohydroxamic acid]	31%	0.022 µM	1.45 µM	113%	
NCc1ccc(-c2nnnn2Cc2ccc(C(=O)NO)cc2)cc1 [comp. 174, 4-[[5-[4-(aminomethyl)phenyl]tetrazol-1-yl]methyl]benzenecarbohydroxamic acid]		0.129 µM	50.3 µM		
COc1ccc(Cc2nnc(-c3cccs3)n2Cc2ccc(C(=O)NO)cc2)cc1OC [comp. 185, 4-[[3-[(3,4-dimethoxyphenyl)methyl]-5-(2-thienyl)-1,2,4-triazol-4-yl]methyl]benzenecarbohydroxamic acid]		1 µM	10.4 µM		
O=C(NO)c1ccc(Cn2c(Cc3c[nH]c4ccccc34)nnc2-c2cccs2)cc1 [compound 183, 4-((3-((1H-indol-3-yl)methyl)-5-(thiophen-2-yl)-4H-1,2,4-triazol-4-yl)methyl)-N-hydroxybenzamide]		0.212 µM	50.3 µM		
